The subject of data set [1] is epimastigote forms of T. cruzi (Y strain). The data set is described as follows: Antitrypanosomal assay. The data set is classed as cell-based, Trypanosoma cruzi. Particulars: for IC50: mean ± SD; for SI (selectivity index): SI: CC50 LLMCK2 / IC50 epimastigote. As for the experimental part: Stock solutions of the synthetic compounds and kaurenoic acid (5, 10, 50, and 100 µg/mL) were prepared in dimethylsulfoxide with their final concentrations not exceeding 1.0%. For the assay, epimastigote forms of T. cruzi (Y strain) were harvested during the exponential phase of growth, resuspended in liver infusion tryptose broth supplemented with 10% inactivated fetal bovine serum (Gibco Invitrogen Corporation, New York, NY, USA) and plated on 24-well plates at a concentration of 1 × 10^6 cells/mL. One milliliter of diluted compounds were included in each well and incubated for 96 h at 28 °C. Cell density was determined by counting the parasites in a hemocytometer chamber (Improved Double Neubauer) under a light microscope. All assays were carried out twice, in duplicate, on separate occasions.

Data set [2] is described as follows: Cytotoxicity assay (sulforhodamine B). Particulars: rhesus monkey, LLMCK2 cells, 96 h incubation, mean ± SD. The class given is cell-based. Here is the method: The cytotoxic effect was evaluated against LLMCK2 cells in 96-well plates. A suspension of 2.5 × 10^4 cells was added to each well and left to grow as a monolayer for 24 h at 37 °C in a 5% CO2/air mixture. After this period, different concentrations of the synthetic compounds and kaurenoic acid (10 to 100 µg/mL) were added to the wells, and the plate was incubated for 96 h under the same conditions described above. The cells were fixed in 10% trichloroacetic acid at 4 °C for 1 h, washed five times with distilled water, and allowed to dry at room temperature. A solution of 4% sulforhodamine B (in 1% acetic acid) was added to each well, and the plate was kept protected from light for 30 min at 4 °C. The wells were then washed four times with 1% acetic acid, an aliquot (150 µL) of 10 mM Tris-base was added, and the aliquot was homogenized for 15 min. The absorbance was read at 530 nm in a microplate spectrophotometer, and data were calculated as the percentage of inhibition of growth. A concentration for 50% cellular toxicity (CC50) was defined as the concentration that reduced the optic density of treated cells by 50% relative to untreated cells.

The mark [3] stands for this setting: Trypanosoma cruzi, 96 h, epimastigote form of T. cruzi Y strain, 96 h at 28 °C, parasite counting, read-out: Epimastigote IC50.

Read-outs that look alike come from different tables or passages of the source.

With `CN(C)c1ccc(/C=N/NC(=S)N[C@]2(C)C[C@@]34CC[C@H]5[C@@](C)(CCC[C@@]5(C)C(=O)O)[C@@H]3CC[C@@H]2C4)cc1` [compound 9, N1-(E)-[4-Dimethylaminophenyl]-N4-[ent-kauren-16β-methyl-19-oic acid]-thiosemicarbazone], the melting point came to 231 °C. The half-maximal inhibitory concentration (IC50) in data set [1] (setting [3]) was 79.5 ± 17.9 µM. In data set [2], half-maximal cytotoxicity (CC50 at 96 h) was put at 248.5 ± 0.6 µM.
Take `C[C@@]12CCC[C@@](C)(C(=O)O)[C@H]1CC[C@@]13C[C@@H](CC[C@H]12)[C@](C)(N=C=S)C3` [compound 2, ent-Kauren-16α-isothiocyane-16β-methyl-19-oic acid]: the melting point was 174 °C. The “SI (selectivity index)” value in data set [1] is 0.9. Further, the 50% inhibitory concentration (IC50) in data set [1] (Trypanosoma cruzi, 96 h, read-out: Epimastigote IC50, epimastigote form of T. cruzi Y strain, 96 h at 28 °C, parasite counting) turned out to be 58.4 µM. Besides, the IC50 in data set [1] (read-out: Epimastigote IC50, epimastigote form of T. cruzi Y strain, 96 h at 28 °C, parasite counting) is 58.2 ± 0.2 µM. In data set [2], this molecule gave a CC50 at 96 h of 52 ± 0.3 µM.
Molecule `C[C@@]12CCC[C@@](C)(C(=O)O)[C@H]1CC[C@@]13C[C@@H](CC[C@H]12)[C@](C)(NC(=S)N/N=C/c1ccc([N+](=O)[O-])cc1)C3` [compound 12, N1-(E)-[4-Nitrophenyl]-N4-[ent-kauren-16β-methyl-19-oic acid]-thiosemicarbazone] had a melting point of 219.5 °C. The “SI (selectivity index)” value in data set [1] stood at 0.1. Besides, in data set [1] (setting [3]), the IC50 was found to be 117 ± 12.8 µM. For the same molecule, half-maximal cytotoxicity in data set [2] (CC50 at 96 h) was put at 15.2 µM.
For `C[C@@]12CCC[C@@](C)(C(=O)O)[C@H]1CC[C@@]13C[C@@H](CC[C@H]12)[C@](C)(NC(=S)N/N=C/c1ccc(O)cc1)C3` [compound 8, N1-(E)-[4-Hydroxyphenyl]-N4-[ent-kauren-16β-methyl-19-oic acid]-thiosemicarbazone], the melting point was 191.5 °C. The IC50 in data set [1] (setting [3]) worked out at 18.3 ± 4 µM. Half-maximal cytotoxicity in data set [2] (CC50 at 96 h) was put at 29.5 ± 0.8 µM.
Molecule `C[C@@]12CCC[C@@](C)(C(=O)O)[C@H]1CC[C@@]13C[C@@H](CC[C@H]12)[C@](C)(NC(=S)N/N=C/c1ccccc1[N+](=O)[O-])C3` [compound 10, N1-(E)-[2-Nitrophenyl]-N4-[ent-kauren-16β-methyl-19-oic acid]-thiosemicarbazone] came in with a melting point of 211 °C. The IC50 in data set [1] (setting [3]) was 2 ± 1.1 µM. In data set [2], this molecule gave a CC50 at 96 h of 17.1 ± 0.1 µM.
Regarding `C[C@@]12CCC[C@@](C)(C(=O)O)[C@H]1CC[C@@]13C[C@@H](CC[C@H]12)[C@](C)(NC(=S)N/N=C/c1ccccc1)C3` [compound 5, N1-(E)-Phenyl-N4-[ent-kauren-16β-methyl-19-oic acid]-thiosemicarbazone], the melting point amounted to 202 °C. In addition, the “SI (selectivity index)” value in data set [1] amounted to 0.5. For the same molecule, the IC50 in data set [1] (setting [3]) was 68.2 ± 11.2 µM. This molecule gave a CC50 at 96 h in data set [2] of 31.1 ± 1 µM.
For `C[C@@]12CCC[C@@](C)(C(=O)O)[C@H]1CC[C@@]13C[C@@H](CC[C@H]12)[C@](C)(SC#N)C3` [compound 3, ent-Kauren-16α-thiocyane-16β-methyl-19-oic acid], the melting point is 165 °C. Also, in data set [1] (setting [3]), the IC50 is 43.7 µM. Moreover, in data set [1] (epimastigote form of T. cruzi Y strain, 96 h at 28 °C, parasite counting, read-out: Epimastigote IC50), the IC50 was 43.4 ± 5.6 µM. The molecule further had a CC50 at 96 h in data set [2] of 103.4 ± 0.7 µM.
Regarding `C[C@@]12CCC[C@@](C)(C(=O)O)[C@H]1CC[C@@]13C[C@@H](CC[C@H]12)[C@](C)(NC(=S)N/N=C/c1ccc(Cl)cc1)C3` [compound 15, N1-(E)-[4-Chlorophenyl]-N4-[ent-kauren-16β-methyl-19-oic acid]-thiosemicarbazone], the melting point stood at 223.5 °C. In data set [1] (setting [3]), the IC50 was found to be 14.9 ± 0.3 µM. In data set [2], this molecule gave a cytotoxic concentration (CC50) at 96 h of 28.7 ± 1.1 µM.
With `C=C1C[C@@]23CC[C@H]4[C@@](C)(CCC[C@@]4(C)C(=O)O)[C@@H]2CC[C@@H]1C3` [compound 1, ent-kaur-16-en-19-oic acid, reference compound], the “SI (selectivity index)” value in data set [1] stood at 0.6. In addition, in data set [1] (setting [3]), the IC50 amounted to 102 µM. This molecule registered a CC50 in data set [2] of 59.5 ± 0.1 µM.
`C[C@@]12CCC[C@@](C)(C(=O)O)[C@H]1CC[C@@]13C[C@@H](CC[C@H]12)[C@](C)(NC(=S)N/N=C/c1cccc(Cl)c1)C3` [compound 14, N1-(E)-[3-Chlorophenyl]-N4-[ent-kauren-16β-methyl-19-oic acid]-thiosemicarbazone] had a melting point of 207 °C. For the same molecule, the IC50 in data set [1] (setting [3]) was determined as 23.5 ± 7 µM. In data set [2], this molecule had a CC50 at 96 h of 56.2 ± 0.4 µM.
Regarding `COc1ccc(/C=N/NC(=S)N[C@]2(C)C[C@@]34CC[C@H]5[C@@](C)(CCC[C@@]5(C)C(=O)O)[C@@H]3CC[C@@H]2C4)cc1` [compound 7, N1-(E)-[4-Methoxyphenyl]-N4-[ent-kauren-16β-methyl-19-oic acid]-thiosemicarbazone], the melting point came out at 214.5 °C. For the same molecule, the IC50 in data set [1] (setting [3]) was 16 ± 4.4 µM. The same molecule displayed a CC50 at 96 h in data set [2] of 78.2 µM.
Molecule `Cc1ccc(/C=N/NC(=S)N[C@]2(C)C[C@@]34CC[C@H]5[C@@](C)(CCC[C@@]5(C)C(=O)O)[C@@H]3CC[C@@H]2C4)cc1` [compound 6, N1-(E)-[4-Methylphenyl]-N4-[ent-kauren-16β-methyl-19-oic acid]-thiosemicarbazone] registered a melting point of 223 °C. For the same molecule, in data set [1] (setting [3]), the IC50 was determined as 23.4 ± 7.7 µM. Besides, the CC50 at 96 h in data set [2] was 122.4 ± 1 µM.
On to `C[C@@]12CCC[C@@](C)(C(=O)O)[C@H]1CC[C@@]13C[C@@H](CC[C@H]12)[C@](C)(NC(=S)NN)C3` [compound 4, N4-[ent-Kauren-16β-methyl-19-oic acid]-thiosemicarbazide], for which the melting point stood at 131 °C. Besides, in data set [1], the “SI (selectivity index)” value was 0.7. Moreover, the IC50 in data set [1] (setting [3]) was 107 ± 13 µM. The CC50 at 96 h in data set [2] turned out to be 71.4 ± 0.7 µM.
The molecule `C[C@@]12CCC[C@@](C)(C(=O)O)[C@H]1CC[C@@]13C[C@@H](CC[C@H]12)[C@](C)(NC(=S)N/N=C/c1ccccc1Cl)C3` [compound 13, N1-(E)-[2-Chlorophenyl]-N4-[ent-kauren-16β-methyl-19-oic acid]-thiosemicarbazone] had a melting point of 202.5 °C. The IC50 in data set [1] (setting [3]) was 39.4 ± 14.3 µM. Further, the CC50 at 96 h in data set [2] was 364 ± 11.3 µM.
For `C[C@@]12CCC[C@@](C)(C(=O)O)[C@H]1CC[C@@]13C[C@@H](CC[C@H]12)[C@](C)(NC(=S)N/N=C/c1cccc([N+](=O)[O-])c1)C3` [compound 11, N1-(E)-[3-Nitrophenyl]-N4-[ent-kauren-16β-methyl-19-oic acid]-thiosemicarbazone], the melting point was found to be 217 °C. For the same molecule, in data set [1] (setting [3]), the half-maximal inhibitory concentration (IC50) is 19 µM. In data set [2], the CC50 at 96 h is 104.8 ± 0.4 µM.

The values above are taken from PMC6259918, “Antitrypanosomal Activity of Novel Benzaldehyde-Thiosemicarbazone Derivatives from Kaurenoic Acid ^†” (Molecules, 2011).
